{"source": "ChEMBL document CHEMBL1201862", "about": "“PubChem BioAssay data set” (2004)", "key": {"[1]": {"biological_target": "Intestinal-type alkaline phosphatase (Homo sapiens, UniProt P09923)", "sequence (P09923 whole entry)": "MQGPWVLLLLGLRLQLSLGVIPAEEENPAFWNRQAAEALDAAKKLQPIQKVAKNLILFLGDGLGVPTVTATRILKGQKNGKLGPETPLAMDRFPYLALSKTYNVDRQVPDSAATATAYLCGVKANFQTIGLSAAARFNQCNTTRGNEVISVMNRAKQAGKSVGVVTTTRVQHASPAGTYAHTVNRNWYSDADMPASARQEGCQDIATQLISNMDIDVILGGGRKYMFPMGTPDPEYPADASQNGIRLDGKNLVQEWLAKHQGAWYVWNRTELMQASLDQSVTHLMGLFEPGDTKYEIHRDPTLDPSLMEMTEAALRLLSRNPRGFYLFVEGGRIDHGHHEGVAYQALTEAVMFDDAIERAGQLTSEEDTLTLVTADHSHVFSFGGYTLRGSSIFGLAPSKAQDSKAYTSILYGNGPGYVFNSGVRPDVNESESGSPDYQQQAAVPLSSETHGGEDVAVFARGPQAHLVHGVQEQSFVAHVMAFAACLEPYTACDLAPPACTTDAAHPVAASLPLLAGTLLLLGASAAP", "assay": "human intestinal alkaline phosphatase activators, dose response, biochemical, luminescence, uHTS hits (AID 463120)", "format": "functional"}, "[2]": {"biological_target": "T1, Sentrin-specific protease 1 (Homo sapiens, UniProt Q9P0U3)", "T1 sequence (Q9P0U3 whole entry)": "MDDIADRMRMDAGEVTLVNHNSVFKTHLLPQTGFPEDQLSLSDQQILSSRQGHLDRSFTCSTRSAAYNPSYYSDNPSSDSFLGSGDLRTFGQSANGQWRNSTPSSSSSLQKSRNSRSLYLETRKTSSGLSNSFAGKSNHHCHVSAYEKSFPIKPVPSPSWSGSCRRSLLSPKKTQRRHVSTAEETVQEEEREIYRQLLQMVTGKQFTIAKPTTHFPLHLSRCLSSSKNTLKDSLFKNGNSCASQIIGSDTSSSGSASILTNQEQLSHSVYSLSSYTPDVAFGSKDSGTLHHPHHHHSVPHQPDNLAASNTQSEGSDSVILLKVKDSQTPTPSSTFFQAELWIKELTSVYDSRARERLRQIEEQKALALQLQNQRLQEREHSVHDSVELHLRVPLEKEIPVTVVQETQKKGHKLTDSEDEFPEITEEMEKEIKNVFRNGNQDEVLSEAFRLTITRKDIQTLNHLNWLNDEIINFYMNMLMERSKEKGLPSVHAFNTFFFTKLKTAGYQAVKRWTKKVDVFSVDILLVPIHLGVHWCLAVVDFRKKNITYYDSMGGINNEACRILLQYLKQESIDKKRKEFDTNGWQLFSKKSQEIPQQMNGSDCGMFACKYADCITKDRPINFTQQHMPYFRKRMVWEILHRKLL", "assay": "potency of human SENP1 inhibitors, dose response, biochemical, kinetic FRET (AID 651697)", "format": "functional", "settings": "read-out: IC50_Mean"}, "[3]": {"biological_target": "T1, Sentrin-specific protease 1", "assay": "Dose response confirmation of small molecule inhibitors of the catalytic domain of the SUMO protease, SENP1 in a FRET assay.", "format": "functional", "settings": "read-out: IC50_Mean"}, "[4]": {"assay": "Luminescence Cell-Based Dose Response HTS to Identify Inhibitors of Luciferase Translation or Activity in H4-C Neuroglioblastoma Cells. [Related pubchem assays: 1813 (Primary HTS), 1827 (Project Summary)]", "format": "functional"}, "[5]": {"assay": "inhibitors of firefly luciferase expression or activity, dose response, H4 neuroglioma cells, luminescence (AID 1990)", "format": "functional, cell-based"}, "[6]": {"assay": "Luminescence Cell-Based Dose Retest to Confirm Activators of 5'UTR Stem-Loop Driven Alpha-Synuclein mRNA Translation in H4 Neuroglioblastoma Cells. [Related pubchem assays (depositor defined):AID1813, AID1829]", "format": "functional"}, "[7]": {"assay": "ELISA Cell-Based Dose Response to Identify Inhibitors of Alpha-Synuclein Translation in SH-SY5Y Cells. [Related pubchem assays: 1813 (Primary HTS), 1827 (Project Summary)]", "format": "functional"}, "[8]": {"assay": "Luminescence Cell-Based Dose HTS Response to Identify Inhibitors of 5'UTR Stem-Loop Driven Prion Protein mRNA Translation in H4-C Neuroglioblastoma Cells. [Related pubchem assays (depositor defined):AID1814, AID1827]", "format": "functional"}, "[9]": {"assay": "Western Blot Cell-Based Dose Response to Identify Inhibitors of […] Alpha-Synuclein Translation in H4 Cells. [Related pubchem assays: 1827 (Project Summary), 1813 (Primary HTS)]"}, "[10]": {"assay": "Luminescence Cell-Based Dose Response HTS to Identify Inhibitors of 5'UTR Stem-Loop Driven Prion Protein mRNA Translation in H4 Neuroglioblastoma Cells. [Related pubchem assays: 1827 (Project Summary), 1813 (Primary HTS)]", "format": "functional"}, "[11]": {"assay": "inhibitors of SNCA 5'UTR-driven reporter translation, confirmation, H4 neuroglioma cells, luminescence (AID 1988)", "format": "functional, cell-based"}, "[12]": {"assay": "Luminescence Cell-Based Dose Confirmation HTS to Identify Inhibitors of 5'UTR Stem-Loop Driven Alpha-Synuclein mRNA Translation in H4 Neuroglioblastoma Cells. [Related pubchem assays: 1827 (Project Summary), 1813 (Primary HTS)]", "format": "functional"}, "[13]": {"biological_target": "T2, Heat shock factor protein 1 (Mus musculus, UniProt P38532)", "T2 sequence (P38532 whole entry)": "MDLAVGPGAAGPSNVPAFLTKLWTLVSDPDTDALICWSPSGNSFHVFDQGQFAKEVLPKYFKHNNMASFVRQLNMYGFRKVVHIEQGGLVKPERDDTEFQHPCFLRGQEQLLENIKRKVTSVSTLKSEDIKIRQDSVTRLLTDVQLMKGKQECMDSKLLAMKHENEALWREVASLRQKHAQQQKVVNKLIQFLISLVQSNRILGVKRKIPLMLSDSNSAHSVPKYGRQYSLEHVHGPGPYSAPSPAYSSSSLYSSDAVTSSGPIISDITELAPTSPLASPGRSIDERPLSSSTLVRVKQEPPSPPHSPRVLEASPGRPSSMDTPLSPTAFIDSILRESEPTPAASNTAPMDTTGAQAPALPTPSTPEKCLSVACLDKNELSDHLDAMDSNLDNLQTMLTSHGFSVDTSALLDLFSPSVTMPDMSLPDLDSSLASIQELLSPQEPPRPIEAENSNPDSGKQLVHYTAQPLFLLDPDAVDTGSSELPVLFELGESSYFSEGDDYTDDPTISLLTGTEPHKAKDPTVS", "assay": "HSF1 potentiators in luciferase reporter cells, confirmation, cell-based, NIH3T3, luminescence, dose retest (AID 435004);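 note: stress induced by proteasome inhibitor MG132 added 30 min after compound; actives raise luminescence as potentiators of the MG132 stress response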", "format": "functional"}, "[14]": {"biological_target": "T3, Runt-related transcription factor 1/Core-binding factor subunit beta (Homo sapiens, UniProt Q01196+Q13951)", "T3 sequence (Q01196 whole entry, the tested form may be a part)": "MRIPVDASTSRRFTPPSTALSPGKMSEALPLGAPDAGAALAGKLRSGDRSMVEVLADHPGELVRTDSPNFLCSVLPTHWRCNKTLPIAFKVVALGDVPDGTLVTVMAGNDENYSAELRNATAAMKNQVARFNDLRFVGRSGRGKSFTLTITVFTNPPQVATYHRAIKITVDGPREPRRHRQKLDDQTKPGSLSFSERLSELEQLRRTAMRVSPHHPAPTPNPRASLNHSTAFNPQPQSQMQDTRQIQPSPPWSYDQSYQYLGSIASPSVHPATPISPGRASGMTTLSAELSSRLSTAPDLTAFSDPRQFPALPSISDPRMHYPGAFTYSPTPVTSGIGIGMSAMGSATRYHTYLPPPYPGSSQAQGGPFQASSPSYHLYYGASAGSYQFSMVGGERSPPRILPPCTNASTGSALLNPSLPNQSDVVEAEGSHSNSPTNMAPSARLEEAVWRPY", "T3 sequence (Q13951 whole entry, the tested form may be a part)": "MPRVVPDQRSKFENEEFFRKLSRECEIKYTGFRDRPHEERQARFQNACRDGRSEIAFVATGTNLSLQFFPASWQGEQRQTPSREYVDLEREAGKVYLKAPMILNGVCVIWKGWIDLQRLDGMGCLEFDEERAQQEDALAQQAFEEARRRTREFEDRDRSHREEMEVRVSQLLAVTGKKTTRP", "assay": "inhibitors of RUNX1 Runt–CBFb-SMMHC binding, primary screen, biochemical, FRET, Cerulean-Runt, Venus-CBFb-SMMHC, uHTS (AID 1434);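 note: partner is the CBFb-SMMHC leukemia fusion protein rather than wild-type CBFb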", "format": "protein assay"}, "[15]": {"biological_target": "T3, Runt-related transcription factor 1/Core-binding factor subunit beta", "assay": "inhibitors of RUNX1 Runt–CBFb-SMMHC binding, biochemical, TR-FRET (AID 1438)", "format": "protein assay"}, "Cannabinoid receptor 2 [16]": {"biological_target": "T4, Cannabinoid receptor 2 (Homo sapiens, UniProt P34972)", "T4 sequence (P34972 whole entry)": "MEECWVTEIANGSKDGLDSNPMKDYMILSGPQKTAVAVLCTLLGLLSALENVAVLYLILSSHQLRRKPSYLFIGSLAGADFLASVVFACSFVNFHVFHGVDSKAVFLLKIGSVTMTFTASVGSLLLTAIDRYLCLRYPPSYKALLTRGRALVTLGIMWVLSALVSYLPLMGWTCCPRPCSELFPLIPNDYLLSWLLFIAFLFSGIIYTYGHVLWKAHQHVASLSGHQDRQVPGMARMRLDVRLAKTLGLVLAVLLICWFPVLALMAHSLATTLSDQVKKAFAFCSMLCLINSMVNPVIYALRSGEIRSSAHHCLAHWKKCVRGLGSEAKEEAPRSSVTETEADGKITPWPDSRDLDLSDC", "assay": "SAR analysis of antagonists of the Cannabinoid Receptor 2 using an Image-Based Assay - Set 2. [Related pubchem assays (depositor defined):AID1961, AID1965]", "format": "functional"}, "[17]": {"biological_target": "G-protein coupled receptor 55 (Homo sapiens, UniProt Q9Y2T6)", "sequence (Q9Y2T6 whole entry)": "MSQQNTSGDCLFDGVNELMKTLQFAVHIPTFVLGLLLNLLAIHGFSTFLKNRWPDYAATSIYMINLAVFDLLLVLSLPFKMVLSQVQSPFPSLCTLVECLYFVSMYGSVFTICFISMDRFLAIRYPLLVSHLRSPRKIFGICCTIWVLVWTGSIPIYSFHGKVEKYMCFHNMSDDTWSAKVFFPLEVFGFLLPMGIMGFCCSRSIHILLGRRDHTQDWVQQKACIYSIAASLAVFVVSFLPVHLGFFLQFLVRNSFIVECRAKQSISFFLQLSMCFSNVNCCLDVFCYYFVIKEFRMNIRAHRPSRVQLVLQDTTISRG", "assay": "SAR analysis of selective Agonists of GPR55 using an Image-Based Assay - Set 2. [Related pubchem assays (depositor defined):AID1961, AID1965]", "format": "functional"}, "Cannabinoid receptor 2 [18]": {"biological_target": "T4, Cannabinoid receptor 2", "assay": "SAR analysis of agonists of the Cannabinoid Receptor 2 using an Image-Based Assay - Set 2. [Related pubchem assays (depositor defined):AID1961, AID1965]", "format": "functional"}, "[19]": {"biological_target": "T5, G-protein coupled receptor 35 (Homo sapiens, UniProt Q9HC97)", "T5 sequence (Q9HC97 whole entry)": "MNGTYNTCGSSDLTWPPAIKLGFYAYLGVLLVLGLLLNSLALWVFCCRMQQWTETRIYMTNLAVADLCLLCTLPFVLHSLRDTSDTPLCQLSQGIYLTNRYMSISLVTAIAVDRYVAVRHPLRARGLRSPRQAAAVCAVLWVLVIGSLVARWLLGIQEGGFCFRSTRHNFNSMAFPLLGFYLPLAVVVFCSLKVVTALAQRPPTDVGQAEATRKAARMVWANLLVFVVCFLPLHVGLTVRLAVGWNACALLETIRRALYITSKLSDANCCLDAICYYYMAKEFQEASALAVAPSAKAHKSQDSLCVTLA", "assay": "SAR analysis of Agonists of the GPR35 Receptor using an Image-Based Assay - Set 3. [Related pubchem assays (depositor defined):AID1961, AID1965]", "format": "functional"}, "Cannabinoid receptor 1 [20]": {"biological_target": "T6, Cannabinoid receptor 1 (Homo sapiens, UniProt P21554)", "T6 sequence (P21554 whole entry)": "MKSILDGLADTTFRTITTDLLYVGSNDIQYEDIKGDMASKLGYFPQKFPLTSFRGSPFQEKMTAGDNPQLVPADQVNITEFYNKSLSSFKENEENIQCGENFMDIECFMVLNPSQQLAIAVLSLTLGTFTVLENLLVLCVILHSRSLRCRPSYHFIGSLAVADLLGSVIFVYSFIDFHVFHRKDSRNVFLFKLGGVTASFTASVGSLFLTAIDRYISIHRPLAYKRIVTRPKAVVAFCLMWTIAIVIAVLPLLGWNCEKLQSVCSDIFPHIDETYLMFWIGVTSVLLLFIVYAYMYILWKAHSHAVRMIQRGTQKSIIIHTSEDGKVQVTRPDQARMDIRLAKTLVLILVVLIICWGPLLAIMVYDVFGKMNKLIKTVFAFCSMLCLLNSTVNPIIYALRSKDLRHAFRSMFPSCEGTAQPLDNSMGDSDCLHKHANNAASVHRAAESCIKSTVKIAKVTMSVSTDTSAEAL", "assay": "SAR analysis of antagonists of the Cannabinoid Receptor 1 using an Image-Based Assay - Set 3. [Related pubchem assays (depositor defined):AID1961, AID1965]", "format": "functional"}, "Cannabinoid receptor 1 [21]": {"biological_target": "T6, Cannabinoid receptor 1", "assay": "SAR analysis of agonists of the Cannabinoid Receptor 1 using an Image-Based Assay - Set 3. [Related pubchem assays (depositor defined):AID1961, AID1965]", "format": "functional"}, "[22]": {"biological_target": "T5, G-protein coupled receptor 35", "assay": "SAR analysis of Antagonists of the GPR35 Receptor using an Image-Based Assay - Set 4. [Related pubchem assays (depositor defined):[…]]", "format": "functional"}, "[23]": {"biological_target": "Voltage-dependent T-type calcium channel subunit alpha-1H (Homo sapiens, UniProt O95180)", "sequence (O95180 whole entry)": "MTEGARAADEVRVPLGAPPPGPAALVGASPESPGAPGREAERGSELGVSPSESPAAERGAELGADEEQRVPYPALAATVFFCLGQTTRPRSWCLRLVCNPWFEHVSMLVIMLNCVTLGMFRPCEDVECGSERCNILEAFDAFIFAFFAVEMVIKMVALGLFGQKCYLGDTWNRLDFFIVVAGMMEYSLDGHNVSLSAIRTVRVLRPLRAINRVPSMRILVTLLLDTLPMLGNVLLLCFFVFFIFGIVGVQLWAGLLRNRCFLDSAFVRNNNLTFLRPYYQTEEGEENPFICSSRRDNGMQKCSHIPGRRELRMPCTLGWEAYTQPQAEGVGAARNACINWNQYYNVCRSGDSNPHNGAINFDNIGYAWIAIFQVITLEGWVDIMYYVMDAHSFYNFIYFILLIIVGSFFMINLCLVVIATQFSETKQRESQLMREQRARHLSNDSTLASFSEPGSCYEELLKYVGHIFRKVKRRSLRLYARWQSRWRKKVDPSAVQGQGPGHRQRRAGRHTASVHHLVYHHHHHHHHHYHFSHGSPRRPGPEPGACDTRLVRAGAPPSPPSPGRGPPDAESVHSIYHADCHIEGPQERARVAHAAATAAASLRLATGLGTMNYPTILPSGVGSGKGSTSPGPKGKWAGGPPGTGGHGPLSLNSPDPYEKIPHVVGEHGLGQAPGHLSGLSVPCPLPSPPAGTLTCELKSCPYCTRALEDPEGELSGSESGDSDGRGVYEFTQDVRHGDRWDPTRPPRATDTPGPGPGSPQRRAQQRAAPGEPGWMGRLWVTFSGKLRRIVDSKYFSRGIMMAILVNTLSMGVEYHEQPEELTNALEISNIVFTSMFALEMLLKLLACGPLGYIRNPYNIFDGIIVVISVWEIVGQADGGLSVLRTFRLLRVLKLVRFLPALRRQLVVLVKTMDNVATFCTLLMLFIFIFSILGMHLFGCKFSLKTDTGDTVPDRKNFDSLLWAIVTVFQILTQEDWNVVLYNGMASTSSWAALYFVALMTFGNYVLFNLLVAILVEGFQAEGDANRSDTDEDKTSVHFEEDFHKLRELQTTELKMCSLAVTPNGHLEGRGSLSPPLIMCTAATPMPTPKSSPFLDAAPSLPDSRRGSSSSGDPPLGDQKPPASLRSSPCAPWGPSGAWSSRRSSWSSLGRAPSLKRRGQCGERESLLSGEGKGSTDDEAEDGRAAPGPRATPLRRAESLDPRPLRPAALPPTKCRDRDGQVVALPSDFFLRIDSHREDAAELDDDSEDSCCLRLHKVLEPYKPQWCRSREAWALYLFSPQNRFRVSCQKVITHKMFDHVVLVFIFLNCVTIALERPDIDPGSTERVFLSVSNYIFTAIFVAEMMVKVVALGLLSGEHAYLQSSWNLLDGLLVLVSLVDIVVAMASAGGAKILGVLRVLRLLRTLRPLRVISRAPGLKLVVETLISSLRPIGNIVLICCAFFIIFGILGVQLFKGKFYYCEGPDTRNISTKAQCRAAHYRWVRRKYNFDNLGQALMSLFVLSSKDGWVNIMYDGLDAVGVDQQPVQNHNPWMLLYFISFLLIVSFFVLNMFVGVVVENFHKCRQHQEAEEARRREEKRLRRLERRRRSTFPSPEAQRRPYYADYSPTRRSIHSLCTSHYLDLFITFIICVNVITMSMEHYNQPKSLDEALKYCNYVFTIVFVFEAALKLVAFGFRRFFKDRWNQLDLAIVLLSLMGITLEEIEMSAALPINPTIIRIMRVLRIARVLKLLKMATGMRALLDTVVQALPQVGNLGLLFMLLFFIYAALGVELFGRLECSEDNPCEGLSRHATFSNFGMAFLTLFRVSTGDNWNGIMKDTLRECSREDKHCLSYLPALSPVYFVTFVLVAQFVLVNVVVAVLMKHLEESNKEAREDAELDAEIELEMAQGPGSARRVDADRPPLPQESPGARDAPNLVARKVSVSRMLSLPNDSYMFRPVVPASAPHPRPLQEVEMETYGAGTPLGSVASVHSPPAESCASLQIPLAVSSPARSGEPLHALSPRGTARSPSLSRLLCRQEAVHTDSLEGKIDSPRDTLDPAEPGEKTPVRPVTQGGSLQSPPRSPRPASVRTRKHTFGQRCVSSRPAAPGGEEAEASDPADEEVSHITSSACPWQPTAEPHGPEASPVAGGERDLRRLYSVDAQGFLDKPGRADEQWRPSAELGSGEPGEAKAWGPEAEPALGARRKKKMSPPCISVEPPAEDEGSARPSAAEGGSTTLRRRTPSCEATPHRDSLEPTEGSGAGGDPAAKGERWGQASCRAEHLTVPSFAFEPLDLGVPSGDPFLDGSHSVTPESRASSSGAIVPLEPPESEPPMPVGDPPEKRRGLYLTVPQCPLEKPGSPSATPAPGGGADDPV", "assay": "Cav3.2 T-type channel inhibitors, synthesized analogs, SAR follow-up, cell-based, synthetic library set 2, HEK293 HH8, Fluo-4 (AID 493023)", "format": "functional"}, "[24]": {"biological_target": "T7, Sphingosine 1-phosphate receptor 4 (Homo sapiens, UniProt O95977)", "T7 sequence (O95977 whole entry)": "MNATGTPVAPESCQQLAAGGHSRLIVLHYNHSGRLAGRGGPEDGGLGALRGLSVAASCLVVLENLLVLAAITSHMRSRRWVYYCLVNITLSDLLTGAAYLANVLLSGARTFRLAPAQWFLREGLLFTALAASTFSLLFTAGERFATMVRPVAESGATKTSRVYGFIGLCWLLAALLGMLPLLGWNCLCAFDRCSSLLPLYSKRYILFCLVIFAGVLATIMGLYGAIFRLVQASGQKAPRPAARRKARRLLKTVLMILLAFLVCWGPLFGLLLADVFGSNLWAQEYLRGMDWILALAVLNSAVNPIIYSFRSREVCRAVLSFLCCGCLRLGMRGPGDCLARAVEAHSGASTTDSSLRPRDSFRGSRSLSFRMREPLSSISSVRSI", "assay": "Late-stage fluorescence dose response cell-based assay to identify agonists of the Sphingosine 1-Phosphate Receptor 4 (S1P4): purchased compounds EC50. [Related pubchem assays (depositor defined):AID1509, AID1523, AID1563, AID1686, AID1701, AID1801]", "format": "functional"}}, "note": "Active and inactive are the calls of the source.", "data": [{"smiles": "O=C(NNc1nc2c(F)cccc2s1)c1cc(=O)c2ccccc2o1", "values": [{"measurement": "EC50", "setting": "[1]", "result": "10.3 µM (active)"}, {"measurement": "IC50", "setting": "[2]", "result": "6.67 µM (active)"}, {"measurement": "IC50", "setting": "[3]", "result": "7.06 µM (active)"}]}, {"smiles": "CN(C)c1nc(N)nc(CSc2nnnn2-c2cccc3ccccc23)n1", "values": [{"measurement": "EC50", "setting": "[4]", "result": "> 195 µM (not active)"}, {"measurement": "EC50", "setting": "[5]", "result": "> 120 µM (not active)"}, {"measurement": "EC50", "setting": "[6]", "result": "1.81 µM (inconclusive)"}, {"measurement": "EC50", "setting": "[7]", "result": "< 6 nM (active)"}, {"measurement": "EC50", "setting": "[8]", "result": "> 195 µM (inactive)"}, {"measurement": "EC50", "setting": "[9]", "result": "< 1 µM (active)"}, {"measurement": "EC50", "setting": "[10]", "result": "> 120 µM (not active)"}, {"measurement": "EC50", "setting": "[11]", "result": "3.5 µM (active)"}, {"measurement": "EC50", "setting": "[12]", "result": "1.81 µM (active)"}, {"measurement": "EC50", "setting": "[13]", "result": "> 260 µM (inactive)"}]}, {"smiles": "COC(=O)C1=C(CSc2nc3c(cc2C#N)CN(C)CC3)OC(N)=C(C#N)C1c1ccccc1F", "note": "(centres undefined)", "values": [{"measurement": "IC50", "setting": "[14]", "result": "> 100 µM (inactive)"}, {"measurement": "IC50", "setting": "[15]", "result": "60.9 µM (inactive)"}]}, {"smiles": "Cc1ccc(-c2csc(NC(=O)CSc3nnc4cc(C)c5ccccc5n34)n2)cc1", "values": [{"measurement": "IC50", "setting": "Cannabinoid receptor 2 [16]", "result": "> 32 µM (inactive)"}, {"measurement": "EC50", "setting": "[17]", "result": "11.5 µM (inactive)"}, {"measurement": "EC50", "setting": "Cannabinoid receptor 2 [18]", "result": "> 32 µM (inactive)"}, {"measurement": "EC50", "setting": "[19]", "result": "> 32 µM (inactive)"}, {"measurement": "IC50", "setting": "Cannabinoid receptor 1 [20]", "result": "> 32 µM (inactive)"}, {"measurement": "EC50", "setting": "Cannabinoid receptor 1 [21]", "result": "> 32 µM (inactive)"}, {"measurement": "IC50", "setting": "[22]", "result": "> 32 µM (inactive)"}]}, {"smiles": "O=C(N[C@H]1CCCN(Cc2ccccc2)C1)c1cc(Cl)cc(Cl)c1", "values": [{"measurement": "EC50", "setting": "[23]", "result": "10 µM (active)"}]}, {"smiles": "Cc1ccc(OCC(=O)Nc2cccc(Cl)c2)c([N+](=O)[O-])n1", "values": [{"measurement": "EC50", "setting": "[24]", "result": "> 50 µM (inactive)"}]}]}
